Assay results reported in publication PMC6525071 (Cell chemical biology, 2019).
pIC50: −log10 of the molar value.

Key:
SUDHL6 cells [1] = test: Untargeted lipidomics; assay type: cell-based; details: for effect of co-treatment on IKE-induced lipidomic changes: 10 μM co-treatment with 500 nM IKE
DLBCL cell lines = test: Rescue of IKE-induced cell death by co-treatment with ferroptosis inhibitors; assay type: cell-based
[2] = ref Larraufie et al., 2015; cited from earlier work
cell lines = details: ref Larraufie et al., 2015, cited from earlier work
HBL1 = test: DLBCL cell line sensitivity to IKE, Cell Titer-Glo viability; assay type: cell-based; details: read-out: cell line sensitivity class (IC50), HBL1, IKE 24 hours
caspase-3 = test: Caspase-3 western blot on tumor tissue; assay type: in vivo, mouse; details: upon IKE treatment, efficacy study
[3] = tested on: SUDHL6 xenograft tumor tissue; test: RT-qPCR in tumor tissue after a single IKE dose; assay type: in vivo, mouse; details: single dose 50 mg/kg IKE, starting at 3 h
LY8 = test: DLBCL cell line sensitivity to IKE, Cell Titer-Glo viability; assay type: cell-based; details: read-out: cell line sensitivity class (IC50), LY8, IKE 24 hours
[4] = tested on: SUDHL6 xenograft tumor tissue; test: Immunofluorescence on frozen tumor sections from efficacy study; assay type: in vivo, mouse
SUDHL-6 cells [5] = test: RT-qPCR gene expression in cells; assay type: cell-based; details: for effect of co-treatment on IKE-induced upregulation of lipid metabolism genes: 10 μM co-treatment with 500 nM IKE
SUDHL-6 cells [6] = test: Lipid ROS by flow cytometry with C11-BODIPY; assay type: cell-based
RIVA = test: DLBCL cell line sensitivity to IKE, Cell Titer-Glo viability; assay type: cell-based; details: read-out: cell line sensitivity class (IC50), IKE 24 hours
[7] = tested on: SUDHL6 xenograft tumor tissue; test: TBARS assay on tumor tissue from efficacy study; assay type: in vivo, mouse
[8] = tested on: SUDHL6 xenograft tumor tissue; test: GSH in tumor tissue after a single IKE dose; assay type: in vivo, mouse; details: single dose 50 mg/kg IKE IP, starting at 4 hours
[9] = Pharmacokinetic analysis in mice with three administration routes; assay type: in vivo, mouse; details: single dose IP, IV, PO, NOD/SCID mice, 5% DMSO in HBSS at pH 4
SUDHL-6 cells [10] = test: Immunofluorescence of dihydropyridine-MDA-lysine adduct in cells; assay type: cell-based; details: IKE treatment
[11] = Pharmacokinetic analysis in NCG mice bearing SUDHL6 xenografts; assay type: in vivo, mouse
LY7 = test: DLBCL cell line sensitivity to IKE, Cell Titer-Glo viability; assay type: cell-based; details: read-out: cell line sensitivity class (IC50), LY7, IKE 24 hours
[12] = Mouse weight during efficacy study; assay type: in vivo; details: starting from day 9
SUDHL-6 cells [13] = test: Reduced glutathione measurement in cells; assay type: cell-based
U937 = test: DLBCL cell line sensitivity to IKE, Cell Titer-Glo viability; assay type: cell-based; details: read-out: cell line sensitivity class (IC50), U937, IKE 24 hours
cells = test: Cell survival test of free fatty acids in the presence or absence of IKE; assay type: cell-based; details: for toxicity of free fatty acid to cells: high concentration (100 μM); for effect of free fatty acid on ferroptosis: 10 μM, in the presence of IKE
SUDHL6 cells [14] = test: IKE PEG-PLGA cellular activity, CellTiter-Glo viability
GSH = details: ref Narang et al., 2007; Lo et al., 2010; cited from earlier work
[15] = IP injection, SUDHL6 NCG xenograft mice
[16] = single dose 50 mg/kg IP, SUDHL6-xenograft-bearing NCG mice
[17] = 10 μM fer-1 co-treatment with 500 nM IKE
[18] = 10 μM fer-1 with 500 nM IKE, 6 hours, SUDHL6 cells

For `CC(=O)N(O)CCCCCNC(=O)CCC(=O)N(O)CCCCCNC(=O)CCC(=O)N(O)CCCCCN` [DFO, deferoxamine], the “effect of co-treatment on IKE-induced lipidomic changes” value (SUDHL6 cells [1]) was “only partially eliminated lipidomic changes” and the “effect of DFO co-treatment on IKE-induced cell death” value (DLBCL cell lines; in culture) was “inhibited IKE-induced cell death”.
In the case of `CC(C)Oc1ccc(C(=O)Cn2ccnc2)cc1-n1c(CN2CCN(C(=O)COc3ccc(Cl)cc3)CC2)nc2ccccc2c1=O` [IKE, imidazole ketone erastin], the metabolic stability [2] is given as “high”, the “potency improvement comparing to erastin” value (cell lines; in some cell lines) is given as > 100 x and the potency (cell lines) is given as “nanomolar”. For the same compound, the pIC50 (HBL1) was 5.00 to 7.00, the “caspase-3 activity in tumor tissues” value (caspase-3) was “no increase in caspase-3 activity” and the “CHAC1 mRNA upregulation in tumor” value [3] was 2 fold. For the same compound, the “PTGS2 mRNA upregulation in tumor” value [3] was 3–5 fold, the “SLC7A11 mRNA upregulation in tumor” value [3] was 3–5 fold and the pIC50 (LY8) was > 7.00. For the same compound, the “increase in 8-OH-dG intensity in tumor sections” value ([4]; IKE 23 mg/kg daily for 14 days) was 1.8 fold, the “increase in COX-2 intensity in tumor sections” value ([4]; IKE 23 mg/kg daily for 14 days) was 2.0 fold and the “increase in MDA intensity in tumor sections” value ([4]; IKE 23 mg/kg daily for 14 days) was 1.8 fold. The “increase in 8-OH-dG intensity in tumor sections” value ([4]; IKE 40 mg/kg daily for 14 days) was 2.2 fold, the “increase in COX-2 intensity in tumor sections” value ([4]; IKE 40 mg/kg daily for 14 days) was 2.8 fold and the “increase in MDA intensity in tumor sections” value ([4]; IKE 40 mg/kg daily for 14 days) was 2.0 fold. For the same compound, the “GPX4, CBS and ACSL4 expression” value (SUDHL-6 cells [5]; IKE treatment, data not shown) was “not upregulated”, the “SLC7A11, PTGS2 and CHAC1 expression” value (SUDHL-6 cells [5]; SUDHL-6 cells, 500 nM IKE) was “significantly increased” and the “lipid ROS (C11-BODIPY)” value (SUDHL-6 cells [6]; different concentrations of IKE) was “dose-dependent increase”. For the same compound, the pIC50 (RIVA) was 5.00 to 7.00, the “MDA increase (TBARS, MDA-TBA adduct fluorescence)” value ([7]; IKE 23 mg/kg) was 1.4 fold and the “MDA increase (TBARS, MDA-TBA adduct fluorescence)” value ([7]; IKE 40 mg/kg) was 1.8 fold. For the same compound, the “GSH depletion in tumor tissue” value [8] was “over 50%”, the “comparison of dosage routes by IKE concentration over eight hours” value [9] was “IP to be the most effective and practical means” and the dihydropyridine-MDA-lysine-adduct abundance (SUDHL-6 cells [10]) was “increased”. For the same compound, the T1/2 plasma [11, 15] was 1.83 h, the T1/2 tumor [11, 15] was 3.50 h and the highest plasma concentration [11, 16] was 5.2 µg/mL. For the same compound, the highest tumor accumulation [11, 16] was 2.5 µg/mL, the “time of highest plasma concentration” value [11, 16] was 1.35 h and the “time of highest tumor accumulation” value [11, 16] was 3.30 h. The pIC50 (LY7) was < 5.00, the mouse weight ([12]; IKE 23 mg/kg daily) was “weight loss” and the mouse weight ([12]; IKE 40 mg/kg daily) was “weight loss”. For the same compound, the “cellular level of reduced glutathione (GSH)” value (SUDHL-6 cells [13]; SUDHL6 cells, different concentrations of IKE, 24 hours) was “dose-dependent GSH depletion”, the pIC50 (SUDHL-6 cells [13]; read-out: IC50 of GSH depletion, SUDHL-6 cells, 24 h) was 7.47 and the pIC50 (U937) was < 5.00.
For `CCCCC/C=C\C/C=C\C/C=C\C/C=C\CCCC(=O)O` [arachidonic acid], the “toxicity of free fatty acid to cells” value (cells) was “toxic to cells”.
In the case of `CC/C=C\C/C=C\C/C=C\C/C=C\C/C=C\CCCC(=O)O` [eicosapentaenoic acid], the “toxicity of free fatty acid to cells” value (cells) was “toxic to cells”.
For `CCOc1ccccc1-n1c(C(C)N2CCN(C(=O)COc3ccc(Cl)cc3)CC2)nc2ccccc2c1=O` (stereo not drawn) [erastin, reference compound], the metabolic stability [2] is given as “metabolically labile”.
For `CCOC(=O)c1ccc(NC2CCCCC2)c(N)c1` [fer-1, ferrostatin-1], the MAG lipids (SUDHL6 cells [1]; [17]) was “decreased”, the TAG lipids (SUDHL6 cells [1]; [17]) was “significantly increased” and the “effect of co-treatment on IKE-induced upregulation of lipid metabolism genes” value (SUDHL-6 cells [5]; SUDHL6 cells) was “partially reversed”. The “effect of co-treatment on IKE-induced CHAC1 upregulation” value (SUDHL-6 cells [5]; [18]) was “did not inhibit CHAC1 upregulation”, the “effect of co-treatment on IKE-induced PTGS2 upregulation” value (SUDHL-6 cells [5]; [18]) was “inhibited PTGS2 upregulation” and the “effect of co-treatment on IKE-induced lipid ROS signal” value (SUDHL-6 cells [6]; 10 μM fer-1 co-treatment) was “inhibited this signal”. For the same compound, the “effect of fer-1 co-treatment on cell death induced by IKE” value (DLBCL cell lines; DLBCL cell lines) was “rescued cell death” and the “effect of fer-1 co-treatment on cell death induced by IKE and IKE PEG-PLGA NPs” value (SUDHL6 cells [14]) was “rescued cell death”.
For `CCCCCCCC/C=C\CCCCCCCC(=O)O` [oleic acid], the “effect of free fatty acid on ferroptosis” value (cells) was “protected against ferroptosis”.
With `CCCCCC/C=C\CCCCCCCC(=O)O` [palmitoleic acid] the “effect of free fatty acid on ferroptosis” value (cells) was “protected against ferroptosis”.
For `O=C(O)c1cc(/N=N/c2ccc(S(=O)(=O)Nc3ccccn3)cc2)ccc1O` [sulfasalazine], the “IC50 for GSH depletion” value (GSH) is listed as “millimolar range”.
In the case of `OCCS` [β-ME, β-mercaptoethanol], the “effect of co-treatment on IKE-induced lipidomic changes” value (SUDHL6 cells [1]) was “reversed these effects”, the “effect of co-treatment on IKE-induced upregulation of lipid metabolism genes” value (SUDHL-6 cells [5]; SUDHL6 cells) was “partially reversed” and the “effect of co-treatment on IKE-induced upregulation of SLC7A11, PTGS2 and CHAC1” value (SUDHL-6 cells [5]; 10 μM β-ME with 500 nM IKE, 6 hours, SUDHL6 cells) was “prevented”. The “effect of co-treatment on IKE-induced GSH depletion” value (SUDHL-6 cells [13]; 10 μM β-ME co-treatment, SUDHL6 cells, 24 hours) was “reversed”.
For `CCCCC/C=C\C/C=C\C/C=C\CCCCC(=O)O` [γ-linolenic acid], the “toxicity of free fatty acid to cells” value (cells) was “toxic to cells”.
